From patent US8623909B2, “Prophylactic/therapeutic agents for lifestyle-related diseases” (priority 2008, dated 2014)
Marks after values point to notes of the source that are not given here.

Assays:
PSA promoter = test: PSA promoter-luciferase activity in LNCaP cells (dual-luciferase reporter); type: cell-based, human
Method: Plasmid pCMV-hAR was constructed based on a method previously reported by the inventors of the present invention (J. Biol. Chem., 282, 7329-7338). In addition, reporter plasmids consisting of PGL3-PSA (human) and PGL3-UCP-1 (mouse) were also constructed based on a method previously reported by the inventors of the present invention (Diabetes, 54, 1000-1008). Furthermore, pRL-SV40 was acquired commercially.
NIH-3T30-L1 mouse preadipocytes were cultured in Dulbecco's modified Eagle's medium (Sera Laboratories) containing 10% fetal calf serum. In addition, cells of human prostate cancer cell line LNCap were cultured in RPMI 1640 medium (Sigma) containing 10% fetal calf serum. Furthermore, these two types of cell lines were obtained from the American Type Culture Collection (Manassas).
The NIH-3T3-L1 cells of 2) above were co-transfected with pCMV-hAR, pRL-SV40 and PGL3-UCP-1 (mouse) in a 24-well plate using an Effectene Transfection Kit (Qiagen) and a Fugene HD Kit (Roche Diagnostics). In addition, the LNCaP cells of 2) above were similarly co-transfected with pCMV-hAR, pRL-SV40 and PGL3-PSA (human).
4) Measurement of Effect on PSA Promoter-Luciferase Activity in LNCaP Cells
The LNCaP cells co-transfected in 3) above were cultured for 24 hours in DMEM or RPMI 1640 containing 10% fetal calf serum treated with dextran-charcoal and a test compound (dissolved in a small amount of DMSO) 24 hours after transfection. Subsequently, the activities of firefly luciferase and Renilla luciferase were assayed in a 24-well plate using the Dual-Luciferase Reporter Assay System (Promega) in accordance with the protocol of Minilumat LB9507 (Berthold Technologies). Furthermore, the value of firefly luciferase activity were normalized based on the internal Renilla control, and were presented as relative luciferase activity.

IRS-2 mRNA = IRS-2 mRNA level in liver of ORX rats; type: in vivo, rat; settings: for IRS-2 mRNA/GAPDH mRNA level in rat liver: solvent 4.8, sham 1.0
From the text: (§1) After housing the animals, the animals were anesthetized with ether, and underwent bilateral orchiectomy (orchiectomized rats: ORX) or a sham treatment. After awaking from the anesthesia, the animals were assigned to test groups of 3 to 5 animals each. […] After 21 days, the rats were sacrificed by exsanguination from the abdominal artery, the ventral prostates and anal levator muscle were excised and weighed followed by immersing in RNAlater (Nacalai Tesque) for extraction of RNA. In addition, soft tissue was removed from the right femur, and immersed in 75% ethanol followed by storage for subsequent measurement of the bone mineral density. Moreover, liver and visceral fat tissue were collected and immersed in RNAlater for RNA extraction.
(§2) Total RNA in various tissues of the ORX rats was isolated using the RNeasy Mini Kit or RNeasy Fibrous Tissue Mini Kit (Qiagen). 1 μg of this total RNA was subjected to reverse transcription using the QuantiaTect Reverse Transcription Kit (Qiagen). Next, cDNA was subjected to real-time PCR analysis using LightCycler (Roche Diagnostics) and each of the transcription products was quantified. Furthermore, PCR was carried out in 20 μl of a reaction mixture under the following conditions using SYBR Premix Ex Taq (Takara Biotechnology): 50 cycles consisting of denaturation for 5 seconds at 95° C., annealing for 20 seconds at 60° C. and elongation for 25 seconds at 72° C. In addition, glyceraldehyde-3-phosphate dehydrogenase (GAPDH) mRNA was simultaneously amplified as an internal standard, and the real-time PCR value of each transcription product were calculated as a relative value based on GAPDH.
(§3) In addition, mRNA levels of insulin receptor substrate 2 (IRS-2) in the liver were also measured.

ORX rats [1] = test: Prostate weight in ORX rats (virilization effect); type: in vivo, rat; settings: for Prostate weight: 21 days, solvent 10.2, sham 132.5; for Change in prostate weight (in words): doses of 1 to 10 mg/kg body weight
Method: The virilization effect of compounds was studied by using the changes in prostate weight during administration of the compounds to ORX rats as an indicator of virilization effect.
(§4) 11-week-old, male Sprague-Dawley (SD) rats (320 to 340 g, purchased from Charles River Japan) were housed for 1 week in a room maintained at a light-dark cycle of 12 hours per day and controlled at a set temperature and humidity while allowing free access to a commercially available standard rodent diet and water.
(§5) After housing the animals, the animals were anesthetized with ether, and underwent bilateral orchiectomy (orchiectomized rats: ORX) or a sham treatment. After awaking from the anesthesia, the animals were assigned to test groups of 3 to 5 animals each. Starting on the day after surgery, the animals were subcutaneously injected once a day with an injection solution of the test compound (prepared by dissolving the test compound in a small amount of DMSO and diluting with olive oil for animal testing (consisting of 95% olive oil and 5% DMSO)) at the rate of 0.1 ml/100 g of body weight. After 21 days, the rats were sacrificed by exsanguination from the abdominal artery, the ventral prostates and anal levator muscle were excised and weighed followed by immersing in RNAlater (Nacalai Tesque) for extraction of RNA. In addition, soft tissue was removed from the right femur, and immersed in 75% ethanol followed by storage for subsequent measurement of the bone mineral density. Moreover, liver and visceral fat tissue were collected and immersed in RNAlater for RNA extraction.

UCP-1 mRNA = UCP-1 mRNA level in visceral fat of ORX rats; type: in vivo, rat; settings: for UCP-1 mRNA/GAPDH mRNA level in rat visceral fat: solvent 1.0, sham 1.0
Method: as §4, §5, §2
Thus, UCP-1 mRNA levels in rat visceral fat were also measured for the purpose of confirmation.

ORX rats [2] = test: Plasma FSH concentration in ORX rats; type: in vivo, rat; settings: for Plasma FSH concentration: solvent 44.1, sham 12.1; for Effect on FSH levels (in words): dose of 1 or 10 mg/kg
From the text: as §1
Characteristics of the effect of compounds on the pituitary gland were investigated by measuring plasma concentrations of LH and FSH in ORX rats treated in the aforementioned section (4)-1).

FAS mRNA = FAS mRNA level in liver and visceral fat of ORX rats; type: in vivo, rat
From the text: as §1, §2, §3

ORX rats [3] = test: Plasma cholesterol level in ORX rats; type: in vivo, rat; settings: for Plasma cholesterol concentration: solvent 78.0, sham 64.8; for Effect on cholesterol levels (in words): 1 and 10 mg/Kg
From the text: as §1
Plasma triglyceride and cholesterol levels were measured to characterize the metabolic profiles of ORX rats treated in the aforementioned section (4)-1).

ORX rats [4] = test: Femoral bone mineral density in ORX rats; type: in vivo, rat; settings: solvent 465.3, sham 517.1
Method: as §4, §5
The anabolic effect of compounds was studied by using as indicators changes in anal levator muscle weight and bone mineral density (BMD) of the femur and vertebra in the ORX rats treated in the aforementioned section (4)-1).
BMD value of epiphyseal cancellous bone of the femur and vertebra of ORX rats treated in the aforementioned section (4)-1) were measured using Scan Xmate-A100S (Comscantecno).

[5] = liver, 1 mg/Kg, solvent 0.9, sham 1.0
[6] = liver, 10 mg/Kg, solvent 0.9, sham 1.0
[7] = visceral fat, 1 mg/Kg, solvent 0.5, sham 1.0
[8] = visceral fat, 10 mg/Kg, solvent 0.5, sham 1.0

Row | Compound | Effect on liver IRS-2 mRNA level (in words) (IRS-2 mRNA) | IRS-2 mRNA/GAPDH mRNA level in rat liver (IRS-2 mRNA; 1 mg/Kg) | IRS-2 mRNA/GAPDH mRNA level in rat liver (IRS-2 mRNA; 10 mg/Kg) | Prostate weight (ORX rats [1]; 1 mg/Kg s.c. once a day) | Prostate weight (ORX rats [1]; 10 mg/Kg s.c. once a day) | Change in prostate weight (in words) (ORX rats [1]) | Effect on visceral fat UCP-1 mRNA levels (in words) (UCP-1 mRNA) | UCP-1 mRNA/GAPDH mRNA level in rat visceral fat (UCP-1 mRNA; 1 mg/Kg) | UCP-1 mRNA/GAPDH mRNA level in rat visceral fat (UCP-1 mRNA; 10 mg/Kg) | Effect on FSH levels (in words) (ORX rats [2]) | FAS mRNA/GAPDH mRNA level (FAS mRNA; [5]) | FAS mRNA/GAPDH mRNA level (FAS mRNA; [6]) | FAS mRNA/GAPDH mRNA level (FAS mRNA; [7]) | FAS mRNA/GAPDH mRNA level (FAS mRNA; [8]) | Effect on cholesterol levels (in words) (ORX rats [3]) | Femoral BMD (ORX rats [4]; 1 mg/Kg) | Femoral BMD (ORX rats [4]; 10 mg/Kg) | also measured
1 | CC(=O)[C@H]1CCC2C3CCc4c(C)cccc4C3CC[C@@]21C (stereo partly drawn) [Compound of formula (Ia)] | increased | 10.6** | 8.8* | 11.1** mg/100 g of body weight | 13.3** mg/100 g of body weight | did not increase | this increase was not significant | 1.7 | 1.5 | did not have any effect on FSH | 0.7 | 0.5 | 0.3* | 0.6 | did not have an effect on cholesterol levels | 447.2 mg/mL | 454.0 mg/mL | Value of luciferase transcription activity (PSA promoter, relative luciferase activity) (PSA promoter; 10^−5M, 24 hours, control (DMSO) 1.0): 1.3; Plasma FSH concentration (ORX rats [2]; 1 mg/Kg): 48.7* ng/mL; Plasma FSH concentration (ORX rats [2]; 10 mg/Kg): 46.3* ng/mL; FAS mRNA levels (in words) (FAS mRNA; liver and visceral fat): also lower; Plasma cholesterol concentration (ORX rats [3]; 1 mg/Kg): 66.0 mg/dL; Plasma cholesterol concentration (ORX rats [3]; 10 mg/Kg): 71.5 mg/dL; Femoral BMD (ORX rats [4]; 30 mg/Kg): 475.9 mg/mL
2 | C[C@]12CCC(=O)C[C@@H]1CC[C@@H]1[C@@H]2CC[C@]2(C)[C@@H](O)CC[C@@H]12 [Dihydrotestosterone, 5α-dihydrotestosterone, reference compound] | decreased | 5.1 | 0.8 | 168.6**^,## mg/100 g of body weight | 216.9*^,## mg/100 g of body weight | increased dose-dependently | had hardly any effect on UCP-1 mRNA levels | 0.8 | 0.9 | inhibited to levels observed in the untreated control group | 8.0 | 7.1 | 2.3 | 3.5*^,# | lowered cholesterol levels | 472.0 mg/mL | 473.6 mg/mL | PSA promoter activity stimulation (PSA promoter; 10^−7 M or 10^−8 M): roughly 9 fold
